Test results from patent US20230053540A1, “TREATMENT OF LIVER INJURY” (Massachusetts Institute of Technology, priority 2019, published 2023).

System: hepatocytes
Assay: Seq-Well scRNA-Seq of hepatocytes after APAP overdose (signature scores, DEG vs untreated)
Format: in vivo, mouse
Conditions: APAP vs UT, composite DEG

CC(=O)Nc1ccc(O)cc1 [APAP, acetaminophen]
Apoa5 logFC: 0.3232
Apob logFC: 0.5802
Apoc3 logFC: −0.7688
Apoc4 logFC: −1.002
Apom logFC: −0.3024
Aqp9 logFC: −0.3109
Arg1 logFC: 0.3179
Arhgap5 logFC: 0.2952
Arhgef12 logFC: 0.5908
Arl5a logFC: 0.2648
Arl6ip1 logFC: −0.3649
Arpc1b logFC: 0.2597
Arrdc3 logFC: 0.5269
Asgr2 logFC: 0.3064
Asl logFC: 0.5586
Ass1 logFC: −0.3144
Atf5 logFC: 0.329
Atf6 logFC: 0.3778
Atp1a1 logFC: 0.4191
Atp1b1 logFC: 0.3702
Atp2a2 logFC: 0.495
Atp2b1 logFC: 0.3321
Atp5b logFC: 0.2917
Atp5c1 logFC: −0.3476
Atp5g3 logFC: −0.3002
Atp5k logFC: −0.4773
Atp5o logFC: −0.3316
Atp6v1f logFC: −0.2529
Atp11c logFC: 0.2605
Atp13a3 logFC: 0.3945
Atp5h logFC: −0.6398
Atp5d logFC: 0.2501
Atxn7l3b logFC: 0.3062
Azin1 logFC: 0.2701
B2m logFC: −0.418
B4galt5 logFC: 0.4763
BC025446 logFC: 0.2942
BC089597 logFC: 0.2622
Baat logFC: −0.3086
Bach1 logFC: 0.8323
Bbox1 logFC: −0.4082
Bche logFC: 0.3134
Bckdha logFC: −0.35
Bcl2l1 logFC: 0.7751
Bet1 logFC: −0.2966
Bfar logFC: 0.2903
Bhmt2 logFC: −0.3114
Bhmt logFC: −0.5202
Birc6 logFC: 0.3444
Bnip3 logFC: 0.4032
Bola3 logFC: −0.3689
Bphl logFC: −0.4075
Bptf logFC: 0.3245
Brap logFC: 0.3492
Brd2 logFC: 0.5715
Bsg logFC: −0.3152
Bst2 logFC: −0.3156
Btaf1 logFC: 0.2755
Bzw1 logFC: 0.2948
C1qb logFC: 0.6817
C3 logFC: 0.4495
C4b logFC: 0.2833
C8b logFC: −0.3602
C8g logFC: −0.6545
C9 logFC: −0.4271
C130074G19Rik logFC: −0.3563
C230081A13Rik logFC: 0.427
Cald1 logFC: 0.3737
Calr logFC: 0.5551
Camk2n1 logFC: 0.2501
Caprin1 logFC: 0.2628
Car3 logFC: −1.036
Car5a logFC: −0.3088
Cars logFC: 0.3158
Cast logFC: 0.4009
Cbr1 logFC: 0.2847
Ccbl1 logFC: −0.3649
Ccl6 logFC: 0.7891
Ccs logFC: −0.4267
Cd1d1 logFC: 0.2912
Cd5l logFC: 0.6935
Cd14 logFC: 0.3621
Cd163 logFC: 0.4408
Cdkn1a logFC: 1.215
Cebpa logFC: −0.3916
Cela1 logFC: −0.2723
Cep85l logFC: 0.2779
Cers6 logFC: 0.5328
Ces1b logFC: 0.373
Ces1f logFC: −0.3126
Ces3a logFC: −0.5253
Ces1d logFC: −0.4289
Cfhr1 logFC: −0.3253
Chac2 logFC: −0.2865
Chd1 logFC: 0.3788
Chka logFC: 1.375
Chpt1 logFC: 0.3566
Cideb logFC: −0.3684
Cidec logFC: 0.2994
Cisd1 logFC: −0.3727
Cldn2 logFC: −0.2511
Cldn3 logFC: −0.3145
Clec4f logFC: 1.108
Clec4d logFC: 0.2636
Cnpy2 logFC: −0.3729
Coa6 logFC: −0.4114
Commd6 logFC: −0.3645
Comt logFC: −0.3684
Copb2 logFC: 0.2839
Copz1 logFC: 0.2577
Coq9 logFC: −0.3479
Coro1c logFC: 0.3067
Cox4i1 logFC: −0.516
Cox5a logFC: 0.4024
Cox6a1 logFC: −0.4872
Cox6b1 logFC: −0.362
Cox6c logFC: −0.8443
Cox8a logFC: 0.4417
Cpne3 logFC: 0.258
Cpt1a logFC: 0.3729
Crat logFC: 0.2556
Creb3l2 logFC: 0.4272
Creb3l3 logFC: 0.2757
Creg1 logFC: 0.2768
Creld2 logFC: 0.6087
Csad logFC: −0.5598
Ctage5 logFC: 0.3287
Cth logFC: −0.5109
Ctnnb1 logFC: 0.2957
Ctsa logFC: 0.252
Ctsb logFC: 0.5213
Ctsh logFC: 0.3245
Ctss logFC: 0.7642
Cvp2e1 logFC: −2.319
Cxcl1 logFC: 0.4498
Cxcl12 logFC: −0.3058
Cxcr2 logFC: 0.4023
Cyp4f14 logFC: −0.2959
Cyp4f15 logFC: −0.2998
Cyp27a1 logFC: −0.3735
D10Jhu81e logFC: −0.3957
D10Wsu102e logFC: 0.5878
D17Wsu92e logFC: 0.372
Dbi logFC: −0.7164
Ddah1 logFC: −0.312
Ddb1 logFC: 0.2778
Ddc logFC: −0.3608
Ddx6 logFC: 0.4443
Ddx27 logFC: 0.2522
Decr1 logFC: 0.4664
Decr2 logFC: 0.4189
Dennd5b logFC: 0.2935
Deptor logFC: 0.2606
Derl2 logFC: −0.3317
Dgat2 logFC: −0.3433
Dhcr24 logFC: 0.4238
Dhdh logFC: −0.3348
Dhrs4 logFC: −0.3321
Dhx9 logFC: 0.3504
Dmgdh logFC: 0.2658
Dnajb9 logFC: 0.2586
Dnajb11 logFC: 0.3154
Dnajc3 logFC: 0.4564
Dnajc19 logFC: −0.316
Dusp5 logFC: 0.2964
Dync1h1 logFC: 0.3796
Dync1li1 logFC: 0.2624
Ebp logFC: −0.3553
Ech1 logFC: −0.4291
Echs1 logFC: −0.3316
Eci1 logFC: −0.2764
Eci2 logFC: 0.311
Edem1 logFC: 0.2869
Edf1 logFC: −0.3817
Eef1a1 logFC: 0.4393
Efhd2 logFC: 0.5838
Egfr logFC: 0.505
Egr1 logFC: 0.5846
Ehhadh logFC: −0.2505
Ei24 logFC: 0.2573
Eif4b logFC: 0.3682
Eif4g2 logFC: 0.5597
Eif5 logFC: 0.5763
Ell2 logFC: 0.4172
Elovl2 logFC: 0.4522
Elovl3 logFC: −0.676
Ephx2 logFC: −0.3693
Eprs logFC: 0.3701
Erbb2ip logFC: 0.3332
Erp44 logFC: 0.2795
Esd logFC: −0.2808
Ethe1 logFC: −0.3334
Etnppl logFC: 0.4967
Ets2 logFC: 0.6956
F2 logFC: 0.3213
F9 logFC: 0.2568
F10 logFC: 0.2791
F12 logFC: 0.2567
Fah logFC: 0.3025
Fam25c logFC: −0.2977
Fam107b logFC: 0.4633
Fam120a logFC: 0.28
Fam134b logFC: 0.8936
Fam214a logFC: −0.2658
Fcgrt logFC: −0.2693
Fdps logFC: −0.2663
Fitm1 logFC: −0.3242
Fkbp4 logFC: −0.3534
Fmo5 logFC: 0.2862
Fn1 logFC: 0.6996
Fpgs logFC: −0.3494
Ftl1 logFC: 1
Furin logFC: 0.4056
Fus logFC: 0.3393
Fxyd5 logFC: 0.2743
G0s2 logFC: 0.3465
G6pc logFC: −0.9601
Gabarap logFC: −0.4425
Gabarapl1 logFC: 0.2607
Gadd45g logFC: −0.614
Gadd45gip1 logFC: −0.3041
Gc logFC: 0.2598
Gcdh logFC: −0.3003
Gch1 logFC: −0.2825
Gcnt2 logFC: 0.5375
Gfra1 logFC: 0.3864
Ggnbp2 logFC: 0.2726
Ghr logFC: −0.3648
Gjb1 logFC: −0.3166
Glo1 logFC: −0.4066
Gltscr2 logFC: 0.2553
Glud1 logFC: 0.451
Glyctk logFC: −0.2977
Gm2a logFC: 0.3831
Gm2788 logFC: −0.2831
Gm4951 logFC: −0.3221
Gm6484 logFC: 0.3043
Gm10800 logFC: 0.5626
Gm10801 logFC: 0.2659
Gm23935 logFC: 1
Gm24245 logFC: 0.5465
Gm24270 logFC: 0.268
Gne logFC: −0.4251
Gnmt logFC: −0.4604
Golga4 logFC: 0.3521
Gpam logFC: 0.2504
Gpld1 logFC: 0.3281
Grhpr logFC: −0.3531
Grlf1 logFC: 0.295
Grn logFC: 0.5408
Gsk3b logFC: 0.4065
Gsta1 logFC: 0.4076
Gsta3 logFC: −0.8063
Gstk1 logFC: −0.2828
Gstm4 logFC: −0.3809
Gstp1 logFC: −0.8558
Gstt3 logFC: 0.3507
Gtpbp4 logFC: 0.4822
Gyk logFC: 0.4024
Gys2 logFC: 0.2744
H6pd logFC: 0.3437
Hadh logFC: 0.2888
Hagh logFC: −0.674
Hamp logFC: −1.021
Hba-a1 logFC: 0.735
Hba-a2 logFC: 0.5535
Hbb-bt logFC: 1.43
Hdac11 logFC: −0.3368
Hdlbp logFC: 0.5651
Herpud1 logFC: 0.5136
Hgd logFC: −0.7586
Hgfac logFC: 0.2522
Hibch logFC: −0.3271
Hint1 logFC: −0.6739
Hipk3 logFC: 0.3394
Hist1h1c logFC: −0.3009
Hmgcl logFC: 0.4738
Hmgcr logFC: 0.4167
Hmgcs1 logFC: −0.3491
Hnf4a logFC: 0.8791
Hnrnpdl logFC: 0.398
Hp logFC: 0.4313
Hsd3b3 logFC: −0.7795
Hsd3b5 logFC: −1.07
Hsd3b7 logFC: −1.006
Hsd17b4 logFC: 0.2532
Hsd17b10 logFC: −0.3772
Hsd17b13 logFC: 0.6808
Hsp90ab1 logFC: 0.3227
Hsp90b1 logFC: 0.5342
Hspa5 logFC: 0.6105
Hspa8 logFC: 0.4204
Huwe1 logFC: 0.3879
Hyou1 logFC: 0.8465
Id3 logFC: −0.3511
Ide logFC: 0.2517
Ifrd1 logFC: 0.4904
Igf1 logFC: 0.2958
Iigp1 logFC: 0.7688
Il1b logFC: 0.7429
Il1r1 logFC: 1.245
Il4ra logFC: 0.2574
Il6ra logFC: 0.3044
Ildr2 logFC: 0.2676
Insig2 logFC: 0.67
Ipo5 logFC: 0.2687
Iqgap1 logFC: 0.4554
Iqgap2 logFC: 0.2547
Ireb2 logFC: 0.2657
Itih3 logFC: 0.5462
Itih4 logFC: 0.5251
Jhdm1d logFC: 0.3041
Kdelr2 logFC: 0.3977
Khk logFC: −0.4915
Kif1b logFC: 0.3718
Kif5b logFC: 0.5012
Kif21a logFC: 0.4042
Klf3 logFC: 0.2674
Klf6 logFC: 0.7324
Klf9 logFC: 0.2934
Kng1 logFC: 0.2658
Krt8 logFC: 1.196
Krt18 logFC: 1.258
Lamp1 logFC: 0.2683
Lap3 logFC: −0.3644
Larp4b logFC: 0.3421
Lasp1 logFC: 0.253
Lcat logFC: 0.4361
Lcp1 logFC: 0.484
Lgals9 logFC: −0.27
Lifr logFC: −0.6262
Lipa logFC: 0.4183
Litaf logFC: 0.3944
Lpgat1 logFC: 0.5952
Lpin2 logFC: 0.6867
Lrg1 logFC: 0.4908
Lrrc58 logFC: 1.001
Lrrfip2 logFC: 0.3731
Lsmd1 logFC: −0.3131
Lyz2 logFC: 0.7322
Macf1 logFC: 0.4042
Magt1 logFC: 0.2633
Man2a1 logFC: 0.4971
Maob logFC: 0.3204
Map3k5 logFC: 0.3347
Mapk6 logFC: 0.2568
Mat2a logFC: 0.4826
Mbl2 logFC: −0.3465
Mbnl1 logFC: 0.4513
Mcee logFC: −0.3199
Mcl1 logFC: 0.5709
Mdh1 logFC: −0.3077
Mdm2 logFC: 0.3283
Med13 logFC: 0.2949
Met logFC: 0.2883
Metap2 logFC: 0.3686
Mettl7a1 logFC: −0.3221
Mettl7b logFC: −0.4527
Mettl20 logFC: −0.3314
Mgll logFC: 0.3339
Mgst1 logFC: −1.06
Mia3 logFC: 0.3646
Mien1 logFC: −0.3704
Mki67ip logFC: 0.3184
Mlycd logFC: 0.313
Mmp8 logFC: 0.359
Mocs2 logFC: −0.3467
Mpeg1 logFC: 0.4935
Mrap logFC: 0.8841
Mrc1 logFC: 0.3404
Mrp63 logFC: −0.4422
Mrpl12 logFC: −0.3082
Mrpl33 logFC: −0.2654
Mrps18c logFC: −0.3663
Mrps24 logFC: −0.3904
Mtdh logFC: 0.3047
Mthfd2 logFC: 0.2624
Mtss1 logFC: 0.2876
Mttp logFC: 0.3115
Mtus1 logFC: 0.3621
Mup1 logFC: 1
Mup4 logFC: −1.087
Mup8 logFC: −0.7958
Mup13 logFC: −0.7757
Mup14 logFC: −0.7608
Mup20 logFC: −0.4762
Mxd1 logFC: 0.2978
Mybbp1a logFC: 0.4312
Myh9 logFC: 1.16
Myl12a logFC: 0.3908
Nadk2 logFC: 0.2579
Naprt1 logFC: −0.3381
Narf logFC: 0.2629
Nars logFC: 0.4378
Ncl logFC: 0.4845
Ndufa1 logFC: −0.3645
Ndufa2 logFC: −0.3965
Ndufa3 logFC: −0.4116
Ndufa4 logFC: −0.6831
Ndufb3 logFC: −0.3272
Ndufb8 logFC: −0.3481
Ndufb10 logFC: −0.3004
Ndufc1 logFC: −0.3444
Ndufc2 logFC: −0.4253
